In patent publication US20220202811A1, “TREATMENT FOR RETINOIC ACID RECEPTOR-RELATED ORPHAN RECEPTOR Ɣ (RORƔ)-DEPENDENT CANCERS” (The Regents of the University of California, priority 2019, published 2022):

Assays:
[1] = tested on: PDX1424, PDX1444, and FG cells; test: compilation of PDX or FG xenografts, AZD-0284; format: in vivo, human
From the text: (§1) FIG. 45 is a compilation of all data from mice bearing PDX or FG cancer xenographs, including PDX1424, PDX1444, and FG.

[2] = tested on: primary patient-derived PDX1424 cancer cells; test: PDX1424 xenografts in mice; format: in vivo, human
From the text: as §1
(§2) Finally, the impact of JTE-151 was examined in vivo on mice bearing primary patient-derived pancreatic cancer xenografts (FIGS. 70-78). […] FIGS. 70-72 show 3 rounds of treatment in an experiment using mice bearing PDX1356 xenographs. The horizontal axis of the first panel in each of FIGS. 70-72 represents days of treatment, and the vertical axis represents tumor volume. The horizontal axis of each of the remaining panels represents the target (vehicle vs. JTE-151 mouse), and the vertical axis represents the specified measurement. JTE-151 was given at the regimen as specified in the figures. For example, in the first round (FIG. 70), JTE-151 was given at 90 mg/kg body weight once per day for the first 25 days, then twice per day from day 26 though day 40.
(§3) Two other primary patient-derived xenografts, PDX1535 (FIGS. 74 and 75) and PDX1424 (FIGS. 76 and 77), were tested using JTE-151 at 90 mg/kg once per day. […] Considering the reduced tumor mass and cell numbers, the absence of a significant change in tumor volume may be due to necrotic cells that remained for a while post drug treatment.

[3] = tested on: PDX1535 xenograft; test: PDX1535 xenografts in mice; format: in vivo, human; settings: JTE-151 90 mg/kg once per day
From the text: as §2, §3

[4] = tested on: PDX1356 xenografts; test: PDX1356 xenografts in mice; format: in vivo, human
From the text: as §2

[5] = tested on: primary patient-derived PDX204 pancreatic cancer cells; test: PDX204 organoid assay; format: cell-based, human
Method: Moreover, the anti-cancer effect of JTE-151 was determined in an organoid assay using pancreatic cancer cells derived from mice bearing primary patient-derived xenografts.

[6] = tested on: IL-17; test: circulating IL-17 level in tumor-bearing KP^f/fC mice; format: in vivo, mouse; settings: 120 mg/kg JTE-151 regimen, responding mice (FIGS. 59-60)
Method: Similarly, the anti-cancer effect of JTE-151 was tested on tumor-bearing KP^f/fC mice in vivo at a higher dose of 120 mg/kg (FIGS. 59-61 showing three individual experiments). For each experiment, one mouse was given vehicle treatment, and another mouse was given the JTE-151 regimen as specified in the figures. For example, in FIG. 59, the JTE-151 mouse received 120 mg/kg body weight of JTE-151 for 2 weeks and then 90 mg/kg JTE-151 for 1 week. In the first 1.5 weeks, JTE-151 was given once daily, and in the second 1.5 weeks, JTE-151 was given twice daily. […] In each of FIGS. 59-61, the horizontal axis of each graph represents the target (vehicle vs. JTE-151 mouse), and the vertical axis represents the specified measurement.

[7] = tested on: KP^f/fC cells; test: pancreatic tumorsphere formation assay; format: cell-based, mouse; settings: SR2211 vs vehicle
Method: Pancreatic tumorsphere formation assays were performed and modified from (Rovira et al., 2010). Briefly, low-passage (<6 passages) WT or REM2-KP^f/fC cell lines were infected with lentiviral particles containing shRNAs; positively infected (red) cells were sorted 72 hours after transduction. 100-300 infected cells were suspended in tumorsphere media: 100 μl DMEM F-12 (Gibco, Life Technologies) containing 1× B-27 supplement (Gibco, Life Technologies), 3% FBS, 100 μM B-mercaptoethanol (Gibco, Life Technologies), 1× non-essential amino acids (Gibco, Life Technologies), 1× N2 supplement (Gibco, Life Technologies), 20 ng/ml EGF (Gibco, Life Technologies), 20 ng/ml bFGF2 (Gibco, Life Technologies), and 10 ng/ml ESGRO mLIF (Thermo Fisher). Cells in media were plated in 96-well ultra-low adhesion culture plates (Costar) and incubated at 37° C. for 7 days. KP^f/fC in vitro tumorsphere formation studies were conducted at a minimum of n=3 independent wells per cell line across two independent shRNA of n=3 wells; however, the majority of these experiments were additionally completed in >1 independently-derived cell lines n=3, at n=3 wells per shRNA.

[8] = tested on: Hmga2; test: target engagement by Hmga2 immunofluorescence in KP^f/fC tumors; format: in vivo, mouse; settings: mid-point of the treatment regimen
Method: FIGS. 20A-20D show target engagement following RORγ inhibition in vivo, related to FIGS. 5A-5X. FIGS. 20A and 20B: Tumor-bearing KP^f/fC mice 9.5 weeks of age were treated with vehicle or SR2211 for two weeks (midpoint), after which tumors were isolated, fixed, and analyzed for target engagement of Hmga2 in epithelial cells by immunofluorescence. Quantification of Hmga2-positive epithelial cells in vehicle or SR2211 treated tumors (FIG. 20A) representative images (FIG. 20B). FIGS. 20C and 20D: Tumor-bearing KP^f/fC mice were treated from 8 weeks of age to endpoint with either vehicle or SR2211. Quantification of Hmga2-positive epithelial cells in vehicle or SR2211 treated tumors (FIG. 20C), representative images (FIG. 20D). Four frames were analyzed per mouse, n=2-4 mice per condition, Hmga2 (red), Keratin (green). Data represented as mean+/−S.E.M. *p<0.05, **p<0.01, ***p<0.001 by Student's t-test or One-way ANOVA. Grubb's test (p=0.1), was used to remove an outlier from the midpoint SR2211 treated group.
Pancreatic cancer tissue from KP^f/fC mice was fixed in Z-fix (Anatech Ltd, Fisher Scientific) and paraffin embedded at the UCSD Histology and Immunohistochemistry Core at The Sanford Consortium for Regenerative Medicine according to standard protocols. 5 μm sections were obtained and deparaffinized in xylene. […]

[9] = compilation of all data (FIG. 45)
[10] = especially at 90 mg/kg AZD-0284 (FIG. 44)
[11] = first round: JTE-151 90 mg/kg once per day for 25 days, then twice per day to day 40
[12] = third round: JTE-151 90 mg/kg once per day

**Q.** Which results are given for `CC(=O)N1Cc2cc(S(C)(=O)=O)ccc2[C@@H]1C(=O)Nc1ccc(C(O)(C(F)(F)F)C(F)(F)F)cc1` [AZD-0284]?
**A.** EpCam+ tumor epithelial cells [1, 9]: decrease; EpCam+/CD133+ tumor stem cells [1, 9]: decrease; cell number [1, 9]: decrease; EpCam+ tumor epithelial cells [1, 10]: reduced; EpCam+/CD133+ tumor stem cells [1, 10]: reduced; EpCam+ tumor epithelial cells ([2]; 60 mg/kg AZD-0284 for 3 weeks): significant reduction; EpCam+/CD133+ tumor stem cells ([2]; 60 mg/kg AZD-0284 for 3 weeks): significant reduction

**Q.** `Cc1ccc(NC(=O)C[C@H](CCC(=O)O)c2noc([C@H]3C[C@@H](CC(C)(C)C)C3)c2C2CC2)c(Cl)c1` [JTE-151, (4S)-6-[(2-chloro-4-methylphenyl)amino]-4-{4-cyclopropyl-5-[cis-3-(2,2-dimethylpropyl)cyclobutyl]isoxazol-3-yl}-6-oxohexanoic acid] was tested. Which “EpCam+ tumor epithelial cells” value [3] did it give?
**A.** trend of decreased

**Q.** What about the “EpCam+/CD133+ tumor stem cells” value [3] of the same molecule?
**A.** trend of decreased

**Q.** What about the total cell counts [3] of the same molecule?
**A.** trend of decreased

**Q.** What about the tumor mass [3] of the same molecule?
**A.** trend of decreased

**Q.** What about the “tumor volume or growth rate” value [3] of the same molecule?
**A.** did not exhibit any significant difference

**Q.** What about the tumor growth rate ([4]; 3 experiments, slope compared to control (FIG. 73)) of the same molecule?
**A.** generally slower

**Q.** What about the “EpCam+ tumor epithelial cells” value [4, 11] of the same molecule?
**A.** lower

**Q.** What about the “EpCam+/CD133+ tumor stem cells” value [4, 11] of the same molecule?
**A.** lower

**Q.** And the cell count [4, 11]?
**A.** decreased

**Q.** What about the tumor growth [4, 11] of the same molecule?
**A.** reduced

**Q.** And the “EpCam+ tumor epithelial cells” value [4, 12]?
**A.** reduced

**Q.** What about the “EpCam+/CD133+ tumor stem cells” value [4, 12] of the same molecule?
**A.** reduced

**Q.** And the organoid growth ([5]; 3 μM JTE-151 alone)?
**A.** inhibited

**Q.** And the organoid growth ([5]; 3 μM JTE-151 in combination with 0.05 nM gemcitabine)?
**A.** inhibited

**Q.** And the “EpCam+ tumor epithelial cells” value ([2]; JTE-151 90 mg/kg once per day)?
**A.** trend of decreased

**Q.** What about the “EpCam+/CD133+ tumor stem cells” value ([2]; JTE-151 90 mg/kg once per day) of the same molecule?
**A.** trend of decreased

**Q.** And the total cell counts ([2]; JTE-151 90 mg/kg once per day)?
**A.** trend of decreased

**Q.** And the tumor mass ([2]; JTE-151 90 mg/kg once per day)?
**A.** trend of decreased

**Q.** What about the tumor growth rate ([2]; JTE-151 90 mg/kg once per day (FIG. 77)) of the same molecule?
**A.** slower

**Q.** And the “circulating IL-17 levels” value [6]?
**A.** decrease

**Q.** With `OC(c1ccc(-c2ccc(CN3CCN(Cc4ccncc4)CC3)cc2)c(F)c1)(C(F)(F)F)C(F)(F)F` [SR2211] as the molecule, how does the sphere formation [7] read?
**A.** decreased

**Q.** What about the “Hmga2 in pancreatic epithelial cells” value [8] of the same molecule?
**A.** downregulated
